US12655116B2, “Substituted isophthalic acid diamides” (Bayer Aktiengesellschaft, priority 2020, dated 2026)

Assays:
VERPE [1] = test: Pre-emergence herbicidal action against VERPE; type: in vivo, Veronica persica; settings: dosage 80 g/ha
Summary of the method: (§1)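 Visual rating at 3 weeks vs untreated pots; 0–100% scale, 100% = plants died. Treatment: aqueous WP/EC spray onto covering soil, 600–800 l/ha, 0.2% wetter, seeds in sandy loam.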

ABUTH [2] = test: Pre-emergence herbicidal action against ABUTH; type: in vivo, Abutilon theophrasti; settings: for Pre-emergence action against ABUTH (herbicidal activity): 80 g/ha, scored visually after 3 weeks vs untreated controls (100% = plants have died, 0% = like control plants); for Pre-emergence action against ABUTH (herbicidal activity in percent): dosage 20 g/ha, scored visually after 3 weeks vs untreated controls, 100% = plants have died, 0% = like control plants
Summary of the method: as §1

AMARE [3] = test: Pre-emergence herbicidal action against AMARE; type: in vivo, Amaranthus retroflexus
Summary of the method: as §1

PHBPU [4] = test: Post-emergence herbicidal action against PHBPU; type: in vivo, Pharbitis purpurea; settings: dosage 20 g/ha
Summary of the method: (§2)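 Greenhouse pot plants in sandy loam were sprayed at the one-leaf stage, 2 to 3 weeks after sowing, with WP or EC formulations as aqueous suspension or emulsion (600 to 800 l/ha water, 0.2% wetting agent). About 3 weeks later, damage was scored visually against untreated controls as % action (100% = dead, 0% = like control).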

DIGSA [5] = test: Pre-emergence herbicidal action against DIGSA; type: in vivo, Digitaria sanguinalis
Summary of the method: as §1

VERPE [6] = test: Post-emergence herbicidal action against VERPE; type: in vivo, Veronica persica
Summary of the method: as §2

VIOTR [7] = test: Post-emergence herbicidal action against VIOTR; type: in vivo, Viola tricolor
Summary of the method: as §2

ECHCG [8] = test: Pre-emergence herbicidal action against ECHCG; type: in vivo, Echinochloa crus-galli; settings: 80 g/ha
Summary of the method: as §1

SETVI [9] = test: Post-emergence herbicidal action against SETVI; type: in vivo, Setaria viridis
Summary of the method: as §2

DIGSA [10] = test: Post-emergence herbicidal action against DIGSA; type: in vivo, Digitaria sanguinalis; settings: for Post-emergence action against DIGSA in %: 5 g/ha; for Post-emergence action against DIGSA: 20 g/ha
Summary of the method: as §2

AMARE [11] = test: Post-emergence herbicidal action against AMARE; type: in vivo, Amaranthus retroflexus; settings: 20 g/ha, visual assessment about 3 weeks after treatment, 100% = plants have died, 0% = like control plants
Summary of the method: as §2

POLCO = test: Pre-emergence herbicidal action against POLCO; type: in vivo, Polygonum convolvulus; settings: dosage 80 g/ha
Summary of the method: as §1

PHBPU [12] = test: Pre-emergence herbicidal action against PHBPU; type: in vivo, Pharbitis purpurea; settings: dosage 80 g/ha
Summary of the method: as §1

MATIN [13] = test: Pre-emergence herbicidal action against MATIN; type: in vivo, Matricaria inodora
Summary of the method: as §1

ECHCG [14] = test: Post-emergence herbicidal action against ECHCG; type: in vivo, Echinochloa crus-galli
Summary of the method: as §2

SETVI [15] = test: Pre-emergence herbicidal action against SETVI; type: in vivo, Setaria viridis; settings: dosage 80 g/ha
Summary of the method: as §1

ABUTH [16] = test: Post-emergence herbicidal action against ABUTH; type: in vivo, Abutilon theophrasti; settings: visual assessment about 3 weeks after treatment vs untreated controls
Summary of the method: as §2

VIOTR [17] = test: Pre-emergence herbicidal action against VIOTR; type: in vivo, Viola tricolor
Summary of the method: as §1

MATIN [18] = test: Post-emergence herbicidal action against MATIN; type: in vivo, Matricaria inodora
Summary of the method: as §2

[19] = 20 g/ha, scored visually after 3 weeks vs untreated controls, 100% = plants have died, 0% = like control plants
[20] = 80 g/ha, scored visually after 3 weeks vs untreated controls (100% = plants have died, 0% = like control plants)

Row | SMILES | Pre-emergence action against VERPE in % (VERPE [1]) [%] | Pre-emergence action against ABUTH (herbicidal activity) (ABUTH [2]) [%] | Pre-emergence action against ABUTH (herbicidal activity in percent) (ABUTH [2]) [%] | Pre-emergence action against AMARE in % (AMARE [3]; [19]) [%] | Pre-emergence action against AMARE in % (AMARE [3]; [20]) [%] | Post-emergence action against PHBPU in % (PHBPU [4]) [%] | Pre-emergence action against DIGSA in % (DIGSA [5]; dosage 20 g/ha) [%] | Pre-emergence action against DIGSA in % (DIGSA [5]; dosage 80 g/ha) [%] | Post-emergence action against VERPE in % (VERPE [6]; 20 g/ha) [%] | Post-emergence action against VIOTR in % (VIOTR [7]; 5 g/ha) [%] | Post-emergence action against VIOTR in % (VIOTR [7]; 20 g/ha) [%] | Pre-emergence action against ECHCG in % (ECHCG [8]) [%] | Post-emergence action against SETVI in % (SETVI [9]; dosage 5 g/ha) [%] | Post-emergence action against SETVI in % (SETVI [9]; dosage 20 g/ha) [%] | Post-emergence action against DIGSA in % (DIGSA [10]) [%] | Post-emergence action against DIGSA (DIGSA [10]) [%] | Post-emergence action at 20 g/ha against AMARE in % (AMARE [11]) [%] | Pre-emergence action against POLCO in % (POLCO) [%] | Pre-emergence action against PHBPU in % (PHBPU [12]) [%] | Pre-emergence action against MATIN in % (MATIN [13]; dosage 20 g/ha) [%] | also measured
1 | CCc1c(C(=O)Nc2nnnn2CC)ccc(C(F)F)c1C(=O)NC [Example 2-277] | 100 | 100 | 90 | 100 | 100 | 90 | 90 | 100 | 90 | 90 | 90 | 90 | 90 | 90 | 90 | 90 | 90 | 90 | 80 | 90 | Post-emergence action against VERPE in % (VERPE [6]; 5 g/ha): 80%; Pre-emergence action against MATIN in % (MATIN [13]; dosage 80 g/ha): 100%; Post-emergence action against ECHCG in % (ECHCG [14]; dosage 20 g/ha): 100%; Pre-emergence action against SETVI in % (SETVI [15]): 80%; Post-emergence action against ABUTH in % (ABUTH [16]; dosage 5 g/ha): 80%; Post-emergence action against ABUTH in % (ABUTH [16]; dosage 20 g/ha): 90%; Pre-emergence action against VIOTR in % (VIOTR [17]; dosage 20 g/ha): 100%; Pre-emergence action against VIOTR in % (VIOTR [17]; dosage 80 g/ha): 100%; Post-emergence action against MATIN in % (MATIN [18]; dosage 5 g/ha): 90%; Post-emergence action against MATIN in % (MATIN [18]; dosage 20 g/ha): 90%
2 | CCn1nnnc1NC(=O)c1ccc(C(F)F)c(C(=O)NC2CC2)c1C1CC1 [Example 2-306] | 100 | 100 | 100 | 90 | 100 | 80 | 100 | 100 | 90 | 90 | 90 | 100 | 80 | 80 | 80 | 90 | 90 | 80 | 100 | 90 | Pre-emergence action against MATIN in % (MATIN [13]; dosage 80 g/ha): 100%; Post-emergence action against ECHCG in % (ECHCG [14]; dosage 5 g/ha): 90%; Post-emergence action against ECHCG in % (ECHCG [14]; dosage 20 g/ha): 90%; Pre-emergence action against SETVI in % (SETVI [15]): 100%; Post-emergence action against ABUTH in % (ABUTH [16]; dosage 20 g/ha): 80%; Pre-emergence action against VIOTR in % (VIOTR [17]; dosage 20 g/ha): 100%; Pre-emergence action against VIOTR in % (VIOTR [17]; dosage 80 g/ha): 100%; Post-emergence action against MATIN in % (MATIN [18]; dosage 5 g/ha): 80%; Post-emergence action against MATIN in % (MATIN [18]; dosage 20 g/ha): 90%
